Assay results as given in US20240336611A1 (Insilico Medicine IP Limited, priority 2021, published 2024).

Key:
[1] = target: T1, TNIK kinase [amino acid sequence (1-367), Invitrogen] (Homo sapiens, UniProt Q9UKE5); experiment: TNIK kinase inhibition assay (Z-lyte FRET-peptide); assay type: biochemical; settings: 0.625 nM TNIK kinase, 2 μM Ser/Thr 7 peptide, 64 μM ATP, one hour at room temperature
T1 construct: purchased Invitrogen

[2] = Metabolic stability in human liver microsomes; assay type: in vitro ADME; settings: LM Clint (intrinsic clearance); 1 μM test compound, 0.5 mg protein/mL microsome, 37° C., up to 60 min

T1 sequence (Q9UKE5 1-367): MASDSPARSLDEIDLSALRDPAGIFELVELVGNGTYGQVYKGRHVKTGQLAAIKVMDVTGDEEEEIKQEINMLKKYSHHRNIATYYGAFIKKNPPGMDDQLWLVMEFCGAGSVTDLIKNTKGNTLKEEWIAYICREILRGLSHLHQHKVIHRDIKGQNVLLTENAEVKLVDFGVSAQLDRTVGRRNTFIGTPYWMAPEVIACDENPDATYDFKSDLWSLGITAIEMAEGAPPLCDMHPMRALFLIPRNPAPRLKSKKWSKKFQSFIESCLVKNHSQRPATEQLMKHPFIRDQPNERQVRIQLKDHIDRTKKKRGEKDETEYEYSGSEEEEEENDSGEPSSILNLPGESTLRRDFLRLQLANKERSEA

Compound | IC50 [1] [nM] | Human Liver Microsome (μM/min/mg) [2]
CC(C)n1cnc(-c2ccc(F)cc2)c1-c1nc(C(=O)Nc2ccc(N3C[C@H]4CC[C@@H](C3)N4C)cn2)c[nH]1 [Compound 24, 5′-(4-fluorophenyl)-3′-isopropyl-N-(5-((1R,5S)-8-methyl-3,8-diazabicyclo[3.2.1]octan-3-yl)pyridin-2-yl)-1H,3′H-[2,4′-biimidazole]-4-carboxamide] | 1 to 12 | ++ (10-100 μM/min/mg as ++)
[2H]C([2H])([2H])N1CC(c2ccc(NC(=O)c3nc(-c4c(-c5ccc(F)cc5)ncn4C4CCC4)cs3)c(F)c2)C1 [Compound 122, 4-[3-cyclobutyl-5-(4-fluorophenyl)imidazol-4-yl]-N-[2-fluoro-4-[1-(trideuteriomethyl)azetidin-3-yl]phenyl]thiazole-2-carboxamide] | 1 to 12 | ++ (10-100 μM/min/mg as ++)
O=C(Nc1ccc(C2COC2)cc1F)c1coc(-c2c(-c3ccc(F)cc3)ncn2C2CC(F)(F)C2)n1 [Compound 81, 2-(1-(3,3-difluorocyclobutyl)-4-(4-fluorophenyl)-1H-imidazol-5-yl)-N-(2-fluoro-4-(oxetan-3-yl)phenyl)oxazole-4-carboxamide] | 12 to 150 | + (>100 μM/min/mg as +)
CC(C)n1cnc(-c2ccc(F)cc2)c1-c1nc(C(=O)Nc2ccc(C3COC3)cc2F)cs1 [Compound 59] | 1 to 12 | + (>100 μM/min/mg as +)
CN1CCN(c2ccc(NC(=O)c3c[nH]c(-c4c(-c5ccc(F)cc5)ncn4C4CCC4)n3)cc2)CC1 [Compound 26, 3′-cyclobutyl-5′-(4-fluorophenyl)-N-(4-(4-methylpiperazin-1-yl)phenyl)-1H,3′H-[2,4′-biimidazole]-4-carboxamide] | 12 to 150 | ++ (10-100 μM/min/mg as ++)
CC(C)n1cnc(-c2ccc(F)cc2)c1-c1nc(C(=O)Nc2ccc(N3C[C@H]4CC[C@@H](C3)N4C)cn2)co1 [Compound 40, 2-(4-(4-fluorophenyl)-1-isopropyl-1H-imidazol-5-yl)-N-(5-((1R,5S)-8-methyl-3,8-diazabicyclo[3.2.1]octan-3-yl)pyridin-2-yl)oxazole-4-carboxamide] | 1 to 12 | + (>100 μM/min/mg as +)
CN1C2CC1CN(c1ccc(NC(=O)c3csc(-c4c(-c5ccc(F)cc5)ncn4C4CC4)n3)nc1)C2 [Compound 45, 2-(1-cyclopropyl-4-(4-fluorophenyl)-1H-imidazol-5-yl)-N-(5-(6-methyl-3,6-diazabicyclo[3.1.1]heptan-3-yl)pyridin-2-yl)thiazole-4-carboxamide] | 1 to 12 | ++ (10-100 μM/min/mg as ++)
CN1C2CC1CN(c1ccc(NC(=O)c3csc(-c4c(-c5ccc(F)cc5)ncn4C4CC(F)(F)C4)n3)nc1)C2 [Compound 83, 2-(1-(3,3-difluorocyclobutyl)-4-(4-fluorophenyl)-1H-imidazol-5-yl)-N-(5-(6-methyl-3,6-diazabicyclo[3.1.1]heptan-3-yl)pyridin-2-yl)thiazole-4-carboxamide] | 1 to 12 | ++ (10-100 μM/min/mg as ++)
COCCN1CC(c2ccc(NC(=O)c3csc(-c4c(-c5ccc(F)cc5)ncn4C(C)C)n3)nc2)C1 [Compound 109, 2-(4-(4-fluorophenyl)-1-isopropyl-1H-imidazol-5-yl)-N-(5-(1-(2-methoxyethyl)azetidin-3-yl)pyridin-2-yl)thiazole-4-carboxamide] | 1 to 12 | ++ (10-100 μM/min/mg as ++)
CC(C)n1cnc(-c2ccc(F)cc2)c1-c1nc(C(=O)Nc2ccc(N3CCN(C)CC3)cn2)cs1 [Compound 7, 2-(4-(4-fluorophenyl)-1-isopropyl-1H-imidazol-5-yl)-N-(5-(4-methylpiperazin-1-yl)pyridin-2-yl)thiazole-4-carboxamide] | 1 to 12 | + (>100 μM/min/mg as +)
CC(C)n1cnc(-c2ccc(F)cc2)c1-c1nc(C(=O)Nc2ccc(C3CN(C)C3)cn2)cs1 [Compound 30, 2-(4-(4-fluorophenyl)-1-isopropyl-1H-imidazol-5-yl)-N-(5-(1-methylazetidin-3-yl)pyridin-2-yl)thiazole-4-carboxamide] | 1 to 12 | ++ (10-100 μM/min/mg as ++)
O=C(Nc1ccc(C2COC2)cn1)c1coc(-c2c(-c3ccc(F)cc3)ncn2C2CC(F)(F)C2)n1 [Compound 63, 2-(1-(3,3-difluorocyclobutyl)-4-(4-fluorophenyl)-1H-imidazol-5-yl)-N-(5-(oxetan-3-yl)pyridin-2-yl)oxazole-4-carboxamide] | > 150 | + (>100 μM/min/mg as +)
[2H]C([2H])([2H])N1CC(c2ccc(NC(=O)c3csc(-c4c(-c5ccc(F)cc5)ncn4C(C)C)n3)nc2)C1 [Compound 108, 2-[5-(4-fluorophenyl)-3-isopropyl-imidazol-4-yl]-N-[5-[1-(trideuteriomethyl)azetidin-3-yl]-2-pyridyl]thiazole-4-carboxamide] | 1 to 12 | ++ (10-100 μM/min/mg as ++)
CC(C)n1cnc(-c2ccc(F)cc2)c1-c1nc(C(=O)Nc2ccc(N3CCP(C)(=O)CC3)cc2F)cs1 [Compound 117, N-(2-fluoro-4-(4-methyl-4-oxido-1,4-azaphosphinan-1-yl)phenyl)-2-(4-(4-fluorophenyl)-1-isopropyl-1H-imidazol-5-yl)thiazole-4-carboxamide] | 1 to 12 | ++ (10-100 μM/min/mg as ++)
CC(C)c1noc(-c2ccc(F)cc2)c1-c1nc(C(=O)Nc2ccc(N3CC4CC(C3)N4C)cc2F)cs1 [Compound 97, N-(2-fluoro-4-(6-methyl-3,6-diazabicyclo[3.1.1]heptan-3-yl)phenyl)-2-(5-(4-fluorophenyl)-3-isopropylisoxazol-4-yl)thiazole-4-carboxamide] | 1 to 12 | ++ (10-100 μM/min/mg as ++)
CC(C)c1onc(-c2ccc(F)cc2)c1-c1nc(C(=O)Nc2ccc(N3CC4CC(C3)N4C)cn2)cs1 [Compound 96, 2-(3-(4-fluorophenyl)-5-isopropylisoxazol-4-yl)-N-(5-(6-methyl-3,6 diazabicyclo[3.1.1]heptan-3-yl)pyridin-2-yl)thiazole-4-carboxamide] | 1 to 12 | ++ (10-100 μM/min/mg as ++)
[2H]C([2H])([2H])N1CC(c2ccc(NC(=O)c3c[nH]c(-c4c(-c5ccc(F)cc5)ncn4C(C)C)n3)c(F)c2)C1 [Compound 114, 2-[5-(4-fluorophenyl)-3-isopropyl-imidazol-4-yl]-N-[2-fluoro-4-[1-(trideuteriomethyl)azetidin-3-yl]phenyl]-1H-imidazole-4-carboxamide] | 1 to 12 | +++ (1-10 μM/min/mg as +++)
